Patent US4981860A, “Pyridinium nitrate, composition containing same and their use for inhibiting platelet activating factor” (Takeda Chemical Industries, Ltd., priority 1989, dated 1991)
Where two headings read alike, the source gives them in different places.

How the values were obtained:
acute renal failure = assay: Effect on acute renal failure in rats (renal artery occlusion/reperfusion); type: in vivo, rat (Sprague Dawley (Jcl)); conditions: 30 mg/kg oral, 1 hour prior to occlusion
Procedure: Method: Male Sprague Dawley (Jcl) rats, 5 weeks old, were anesthetized with sodium pentobarbital (50 mg/kg, i.p.) and the renal artery was occluded bilaterally for 45 minutes followed by reperfusion for 20 hours. The blood was collected from the abdominal aorta under anesthesia for measurement of blood urea nitrogen (BUN).
Results: The concentration of BUN was markedly elevated 20 hours after reperfusion.

[1] = system: Reversed passive Arthus reaction; assay: Reversed passive Arthus reaction in rat; type: in vivo, rat (Sprague-Dawley); conditions: iv, given intravenously, read-out: ID50 (inhibition of Arthus reaction, area stained blue)
Procedure: Hair was removed at the back of a male Sprague-Dawley rat (7-week-old, weighing about 250 g) under slight anesthesia with ether and a solution of the test substance [the compound (6) obtained in the Production Example 1] in physiological saline was injected into the caudal vein at the dose of 0.2 ml per 100 g of body weight. Immediately 1 ml of 0.5% antigenic egg albumin solution in physiological saline was injected into the caudal vein. Immediately 0.1 ml of the rabbit anti-egg albumin antiserum (containing 6 mg protein antibody/ml) was given subcutaneously at a site each on the right and the left side of the back. Three hours later, 1 ml of 1% Evans Blue solution in physiological saline was injected intravenously, the skin was removed after 30 minutes, and the area stained blue was measured (in mm^2). The extent of inhibition was calculated by comparing the area with that in the group without treatment with the test substance.

[2] = system: endotoxin (ET)-induced hypotension; assay: Reversal of endotoxin (ET)-induced hypotension in rats; type: in vivo, rat (SD); conditions: Rattus norvegicus, iv; given eight minutes after ET (15 mg/kg)
Procedure: Method: Male SD rats were anesthetized with sodium pentobarbital, and the right femoral artery and left femoral vein were cannulated for blood pressure measurement and for injection of the compound (6) obtained in the Production Example 1 or ET (E. Coli, 0111, B4), respectively. The compound (6) obtained in the Production Example 1 was given eight minutes after the injection of ET (15 mg/kg).

[3] = system: death induced by anaphylactic shock; assay: Protective effect against death induced by anaphylactic shock in mice; type: in vivo; conditions: Mus musculus, iv, 1 h; i.v. 5 min before rechallenge with BSA (1 mg/kg, i.v.); survival at 60 min; read-out: ED50 (protection from anaphylactic shock)
Procedure: Method: Male mice were sensitized with bovine serum albumin (BSA) and killed Bordetella pertussis. Two to three weeks later, the mice were rechallenged with BSA (1 mg/kg, i.v.). Survival rate was determined 60 min after the injection of BSA. The compound (6) obtained in the Production Example 1 was given i.v. 5. min. before the rechallenge with BSA.

PAF-induced hypotension = assay: Inhibitory action on PAF-induced hypotension in rats; type: in vivo, rat (Sprague-Dawley); conditions: for Inhibition of hypotensive effect: PAF 1 μg/kg i.v.
Procedure: Male Sprague-Dawley rats weighing about 250 g were used. Cannulas were inserted into the unilateral femoral artery for measurement of blood pressure and into the unilateral femoral vein for administration of the drug solution. Blood pressure was measured via a pressure transducer and recorded on a polygraph. Blood pressure decrease was measured after intravenous (i.v.) injection of PAF at 1 μg/kg, and then the test substance [the compound (6) in Production Example 1] was given intravenously or orally; PAF at 1 μg/kg was given intravenously 5 minutes and 1, 2, 4, 6, and 8 hours after the intravenous injection, and 1, 2, 4, 6 and 8 hours after the oral administration, and the blood pressure decrease was measured.
The inhibitory action on PAF-induced hypotension was expressed in the ratio of decrement of blood pressure due to PAF before the treatment with the test substance (mmHg) to the decrement after the treatment with the test substance (mmHg).

[4] = Stability test in the form of powders (30 days of storage, HPLC content); type: physicochemical; conditions: for remaining at 720 h: 30 days, powder in closed glass bottles, read-out: remaining percentage
Procedure: The compounds obtained were examined for their stability in the form of powders. […] Procedure: About 100 mg each of the test substance was placed into glass bottles, which were then closed tightly and kept at room temperature (20±2° C.) and at 40° C. (not for the control compound) for 30 days. Determination of the content: An aliquot of the test substance was dissloved in the mobile phase for high performance liquid chromatography [acetonitrile:methanol:0.1% phosphoric acid=900:240:2100] and the content was determined by HPLC.
Conditions of HPLC: column YMC ODS A302 4.6×150 mm

[5] = system: PAF-induced airway constriction; assay: Inhibition of PAF in tracheal obstruction (PAF-induced airway constriction); type: in vivo, guinea pig (Hartley); conditions: 0.03 mg/kg i.v., two minutes before PAF (0.3 μg/kg i.v.)
Procedure: Male and female Hartley guinea pigs weighing about 400 g each were used. The animal was fixed in the supine position under anesthesia with urethane (1.5 g/kg, i.p.), one of the 4 branches of a cannula was inserted into the trachea, and two of the other 3 branches were connected to a respirator (Harvard apparatus rodent respirator). The last branch was connected to a bronchospasm transducer 7020 (Ugobasile). Air was pumped into the lung at the rate of 5 to 7 ml at a time and 70 times per minutes at the loading pressure to the lung of 10 cm H2 O, and the volume of the overflown air was recorded via a transducer on the Rectigraph (Rectigraph-8S, San-ei Sokki). After treatment with gallamine triethodide (1 mg/kg, i.v.), histamine dihydrochloride (10 μg/kg) was intravenously injected, and the responsiveness of the animal was investigated. Thirty seconds after intravenous injection of PAF (0.3 μg/kg), a maximal airway constriction was observed. Under the conditions, the test substance [the compound (6) obtained in the Production Example 1] was examined for its inhibitory action. The test substance was dissolved in physiological saline, and given intravenously two minutes before PAF administration.

[6] = system: endotoxin-induced disseminated intravascular coagulation (DIC); assay: Inhibition of experimental disseminated intravascular coagulation (DIC) in rats; type: in vivo, rat (SD)
Procedure: Method: Male SD rats were anesthetized with sodium pentobarbital. Endotoxin (E. Coli, 0111, B4) (ET) was infused into the right femoral vein at a rate of 250 μg/kg/hr for 4 hr. The compound (6) obtained in the Production Example 1 (Test compound) at a dose of 200 μg/kg was given i.v. bolus 5 min. before the infusion of ET and was then infused at a rate of 200 μg/kg/hr for 4 hr.

Acute toxicity in mice = type: in vivo, mouse (Jcl-ICR)
Description: Male J cl-ICR mice (5 animals) (aged 5 weeks) were used.

[7] = system: PAF-induced rabbit platelet aggregation; assay: Inhibition of PAF-induced rabbit platelet aggregation (platelet rich plasma); type: cell-based; conditions: Oryctolagus cuniculus, read-out: rate of inhibition of PAF-induced rabbit platelet aggregation
Procedure: Blood was drawn from a male rabbit directly by cardiopuncture with a syringe containing 3.15% citric acid as an anticoagulant (one volume to 9 volumes of blood). By centrifugation at 800 rpm for 10 minutes at room temperature, platelet rich plasma (PRP) was obtained. The residual blood was centrifuged again at 3000 rpm for 10 minutes to give platelet poor plasma (PPP) as the supernatant. PRP was diluted with PPP so that the platelet count might be adjusted to about 500,000 cells/μl. 250 μl of this PRP was stirred at 37° C. for 2 minutes, and the test substance [the compound (6) obtained in Production Example 1] was added. The mixture was stirred again for 2 minutes, followed by the addition of PAF of a certain concentration. Platelet aggregation was measured with a platelet aggregometer (manufactured by Rika Denki Co. in Japan). The aggregation inhibition by the test substance was determined as the percentage of reduction from the maximal transmittance (the maximal aggregation) by PAF in the control PRP.

[8] = system: endotoxin (ET)-induced death; assay: Inhibition of endotoxin (ET)-induced death in rats; type: in vivo, rat (SD)
Procedure: Method: Male SD rats were used. ET (E. Coli, 0111, B4) (15 mg/kg) was given i.v. 5 min after the injection of the compound (6) obtained in the Production Example 1.

For `CCC[n+]1cc(Br)cc(C(=O)N(CCC(=O)NCCOC(=O)N2CCc3ccccc3C2)c2ccccc2)c1.O=[N+]([O-])[O-]` [Compound (6), 3-bromo-5-[N-phenyl-N-[2-[[2-(1,2,3,4-tetrahydro-2-isoquinolylcarbonyloxy)ethyl]carbamoyl]ethyl]carbamoyl]-1-propylpyridinium nitrate], the “effect on elevation of BUN (in words)” value (acute renal failure) was “inhibited significantly the elevation of BUN”, the “Blood urea nitrogen (BUN)” value (acute renal failure; 20 hours after reperfusion, P<0.05, control 110 ± 4) was 88 ± 2 mg/dL and the ED50 [1] was 1.2 µg/kg. The ED50 [2] was 1.2 µg/kg, the ED50 [3] was 2.6 µg/kg and the “Inhibition of hypotensive effect” value (PAF-induced hypotension; 0.01 mg/kg i.v., 5 minutes) was 93%. For the same molecule, the “Inhibition of hypotensive effect” value (PAF-induced hypotension; 0.01 mg/kg i.v., 1 hour) was 84%, the “Inhibition of hypotensive effect” value (PAF-induced hypotension; 0.01 mg/kg i.v., 2 hour) was 68% and the “Inhibition of hypotensive effect” value (PAF-induced hypotension; 0.01 mg/kg i.v., 4 hour) was 48%. The “Inhibition of hypotensive effect” value (PAF-induced hypotension; 0.01 mg/kg i.v., 6 hour) was 44%, the “Inhibition of hypotensive effect” value (PAF-induced hypotension; 0.01 mg/kg i.v., 8 hour) was 24% and the “Inhibition of hypotensive effect” value (PAF-induced hypotension; 1 mg/kg p.o., 1 hour) was 69%. For the same molecule, the “Inhibition of hypotensive effect” value (PAF-induced hypotension; 1 mg/kg p.o., 2 hour) was 87%, the “Inhibition of hypotensive effect” value (PAF-induced hypotension; 1 mg/kg p.o., 4 hour) was 82% and the “Inhibition of hypotensive effect” value (PAF-induced hypotension; 1 mg/kg p.o., 6 hour) was 76%. For the same molecule, the “Inhibition of hypotensive effect” value (PAF-induced hypotension; 1 mg/kg p.o., 8 hour) was 69%, the “PAF-antagonism after oral administration (in words)” value (PAF-induced hypotension; general statement, oral) was “excellent PAF-antagonism even after oral administration” and the “stability (in words)” value ([4]; general statement, compared with the corresponding chloride) was “more stable than the corresponding chloride”. The remaining at 720 h ([4]; powder, closed glass bottles, at 40° C.) was 99.3%, the remaining at 720 h ([4]; powder, closed glass bottles, at room temperature (20±2° C.)) was 100% and the “inhibition of PAF-induced airway constriction” value [5] was 91.3%. For the same molecule, the Fybrinogen ([6]; 200 μg/kg before ET, then 200 μg/kg/hr for 4 hr, P<0.01 vs control, control 0.3 ± 0.1, normal 2.7 ± 0.1) was 1.2 ± 0.3 mg/ml plasma, the FDP ([6]; 200 μg/kg before ET, then 200 μg/kg/hr for 4 hr, P<0.01 vs control, control 16.8 ± 2.3, normal 0.5 ± 0.0) was 4.6 ± 0.8 μg/ml plasma and the “PT (prothrombin time)” value ([6]; 200 μg/kg before ET, then 200 μg/kg/hr for 4 hr, P<0.01 vs control, control 18.9 ± 1.3, normal 11.2 ± 0.2) was 14.0 ± 0.4 s. The Platelets ([6]; 200 μg/kg before ET, then 200 μg/kg/hr for 4 hr, P<0.01 vs control, control 23 ± 3, normal 71 ± 3) was 40 ± 4 × 10^4 /μl, the “APTT (activated partial thromboplastin time)” value ([6]; 200 μg/kg before ET, then 200 μg/kg/hr for 4 hr, P<0.01 vs control, control 58.3 ± 3.6, normal 35.3 ± 1.3) was 42.8 ± 1.5 s and the “effect on changes in DIC parameters (in words)” value ([6]; 200 μg/kg i.v. bolus + 200 μg/kg/hr for 4 hr) was “significantly inhibited the changes in these DIC parameters”. For the same molecule, the “death until one week later (acute toxicity, intravenous)” value (Acute toxicity in mice; 10 mg/kg intravenously, male mice, 5 animals) was “no death was observed”, the “death until one week later (acute toxicity, oral)” value (Acute toxicity in mice; 1000 mg/kg orally, male mice, 5 animals) was “no death was observed” and the “toxicity (in words)” value (Acute toxicity in mice; general statement) was “low toxicity”. For the same molecule, the inhibition at 3 µM ([7]; 3 × 10^-6 M) was 100%, the inhibition at 0.3 µM ([7]; 3 × 10^-7 M) was 100% and the inhibition at 0.03 µM ([7]; 3 × 10^-8 M) was 71%. It also gave a Survival rate ([8]; 10 μg/kg i.v. 5 min before ET 15 mg/kg i.v., 6 day) of 30%, a Survival rate ([8]; 100 μg/kg i.v. 5 min before ET 15 mg/kg i.v., 22 hr, P<0.05 vs control) of 60% and a Survival rate ([8]; 100 μg/kg i.v. 5 min before ET 15 mg/kg i.v., 6 day, P<0.05 vs control) of 40%. For the same molecule, the “effect on survival rate of rats (in words)” value ([8]; 100 μg/kg, almost 1 week) was “significantly improved the survival rate”.

With `CCC[n+]1cc(Br)cc(C(=O)N(CCC(=O)NCCOC(=O)N2CCc3ccccc3C2)c2ccccc2)c1` [Compound (7), 3-Bromo-5-[N-phenyl-N-[2-[[2-(1,2,3,4-tetrahydro-2-isoquinolylcarbonyloxy)ethyl]carbamoyl]ethyl]carbamoyl]-1-propylpyridinium chloride, reference compound] the remaining at 720 h ([4]; at room temperature (20±2° C.)) was 65%.
